Data as given in the supplement of paper PMC10307832.

Legend:
Assay in all cases: relative viability (nuclei count vs DMSO), 5 days (fraction); higher = more cells survive
[1] = system: COR-L23
Outline: (§1)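 Lung cancer cell lines were pin-tool dosed in 1536-well plates on the day after seeding, with either a lone drug or a fixed anchor-drug dose plus five library-drug doses (not always all listed) in √10 steps. Nuclei were counted on 4× images after 5 days. Relative viability is the ratio of treated-well to vehicle-well nuclei counts, with each value a median of duplicate plates.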

[2] = system: ChaGo-K-1
Outline: as §1

[3] = system: EPLC-272H
Outline: as §1

[4] = system: HCC-366
Outline: as §1

[5] = system: IA-LM
Outline: as §1

[6] = system: NCI-H1648
Outline: as §1

[7] = system: NCI-H1915
Outline: as §1

[8] = system: NCI-H838
Outline: as §1

[9] = system: SW 900
Outline: as §1

[10] = system: NCI-H1623
Outline: as §1

[11] = system: NCI-H1703
Outline: as §1

For `COCC1(CO)C(=O)C2CCN1CC2` (stereo unspecified) [PRIMA-1MET] + O=C(CCCCCCC(=O)Nc1ccccc1)NO [Vorinostat] (partner 1 µM), the relative viability ([1]; first compound 0.2 µM) was 0.487, the relative viability ([1]; first compound 0.6325 µM) was 0.432 and the relative viability ([1]; first compound 2 µM) was 0.454. For the same compound, the relative viability ([1]; first compound 6.325 µM) was 0.344, the relative viability ([1]; first compound 20 µM) was 0.0281 and the relative viability ([2]; first compound 0.2 µM) was 0.858. The relative viability ([2]; first compound 0.6325 µM) was 0.431, the relative viability ([2]; first compound 2 µM) was 0.627 and the relative viability ([2]; first compound 6.325 µM) was 0.743. The relative viability ([2]; first compound 20 µM) was 0.709, the relative viability ([3]; first compound 0.2 µM) was 0.536 and the relative viability ([3]; first compound 0.6325 µM) was 0.581. It also gave a relative viability ([3]; first compound 2 µM) of 0.417, a relative viability ([3]; first compound 6.325 µM) of 0.534 and a relative viability ([3]; first compound 20 µM) of 0.0678. For the same compound, the relative viability ([4]; first compound 0.2 µM) was 0.596, the relative viability ([4]; first compound 0.6325 µM) was 0.252 and the relative viability ([4]; first compound 2 µM) was 0.249. It also gave a relative viability ([4]; first compound 6.325 µM) of 0.336, a relative viability ([4]; first compound 20 µM) of 0.0291 and a relative viability ([5]; first compound 0.2 µM) of 0.971. The relative viability ([5]; first compound 0.6325 µM) was 0.74, the relative viability ([5]; first compound 2 µM) was 0.926 and the relative viability ([5]; first compound 6.325 µM) was 1.06. It also gave a relative viability ([5]; first compound 20 µM) of 1.05, a relative viability ([6]; first compound 0.2 µM) of 0.668 and a relative viability ([6]; first compound 2 µM) of 0.445. The relative viability ([6]; first compound 20 µM) was 0.621, the relative viability ([7]; first compound 0.2 µM) was 0.605 and the relative viability ([7]; first compound 0.6325 µM) was 0.378. The relative viability ([7]; first compound 2 µM) was 0.446, the relative viability ([7]; first compound 6.325 µM) was 0.625 and the relative viability ([7]; first compound 20 µM) was 0.482. It also gave a relative viability ([8]; first compound 0.2 µM) of 0.769, a relative viability ([8]; first compound 0.6325 µM) of 0.691 and a relative viability ([8]; first compound 2 µM) of 0.694. It also gave a relative viability ([8]; first compound 6.325 µM) of 0.762, a relative viability ([8]; first compound 20 µM) of 0.546 and a relative viability ([9]; first compound 0.2 µM) of 0.58. The relative viability ([9]; first compound 0.6325 µM) was 0.427, the relative viability ([9]; first compound 6.325 µM) was 0.504 and the relative viability ([9]; first compound 20 µM) was 0.129.
Compound `COCC1(CO)C(=O)C2CCN1CC2` (stereo unspecified) [PRIMA-1MET] + CCNC(=O)c1noc(-c2cc(C(C)C)c(O)cc2O)c1-c1ccc(CN2CCOCC2)cc1 [Luminespib] (partner 0.01 µM) has a relative viability ([1]; first compound 0.2 µM) of 0.691, a relative viability ([1]; first compound 0.6325 µM) of 0.528 and a relative viability ([1]; first compound 2 µM) of 0.711. The relative viability ([1]; first compound 6.325 µM) was 0.578, the relative viability ([1]; first compound 20 µM) was 0.0159 and the relative viability ([2]; first compound 0.2 µM) was 0.694. For the same compound, the relative viability ([2]; first compound 0.6325 µM) was 0.531, the relative viability ([2]; first compound 2 µM) was 0.57 and the relative viability ([2]; first compound 6.325 µM) was 0.592. For the same compound, the relative viability ([2]; first compound 20 µM) was 0.346, the relative viability ([3]; first compound 2 µM) was 0.277 and the relative viability ([3]; first compound 6.325 µM) was 0.237. The relative viability ([3]; first compound 20 µM) was 0.146, the relative viability ([10]; first compound 0.2 µM) was 0.592 and the relative viability ([10]; first compound 0.6325 µM) was 0.37. For the same compound, the relative viability ([10]; first compound 2 µM) was 0.446, the relative viability ([10]; first compound 6.325 µM) was 0.426 and the relative viability ([10]; first compound 20 µM) was 0.247. The relative viability ([7]; first compound 0.2 µM) was 0.868, the relative viability ([7]; first compound 0.6325 µM) was 0.506 and the relative viability ([7]; first compound 6.325 µM) was 0.853. It also gave a relative viability ([7]; first compound 20 µM) of 0.697, a relative viability ([8]; first compound 0.2 µM) of 0.315 and a relative viability ([8]; first compound 0.6325 µM) of 0.194. For the same compound, the relative viability ([8]; first compound 2 µM) was 0.298, the relative viability ([8]; first compound 6.325 µM) was 0.284 and the relative viability ([8]; first compound 20 µM) was 0.189. For the same compound, the relative viability ([9]; first compound 0.2 µM) was 0.171, the relative viability ([9]; first compound 0.6325 µM) was 0.176 and the relative viability ([9]; first compound 2 µM) was 0.162. It also gave a relative viability ([9]; first compound 6.325 µM) of 0.136 and a relative viability ([9]; first compound 20 µM) of 0.091.
In the case of `COCC1(CO)C(=O)C2CCN1CC2` (stereo unspecified) [PRIMA-1MET] + NC(=O)Nc1cc(-c2cccc(F)c2)sc1C(=O)N[C@H]1CCCNC1 [AZD7762] (partner 0.2 µM), the relative viability ([2]; first compound 0.2 µM) is reported as 0.765, the relative viability ([2]; first compound 0.6325 µM) is reported as 0.794 and the relative viability ([2]; first compound 2 µM) is reported as 0.819. For the same compound, the relative viability ([2]; first compound 6.325 µM) was 0.85, the relative viability ([2]; first compound 20 µM) was 0.779 and the relative viability ([3]; first compound 0.2 µM) was 0.236. It also gave a relative viability ([3]; first compound 0.6325 µM) of 0.123, a relative viability ([3]; first compound 2 µM) of 0.178 and a relative viability ([3]; first compound 6.325 µM) of 0.262. It also gave a relative viability ([3]; first compound 20 µM) of 0.147, a relative viability ([4]; first compound 0.2 µM) of 0.3 and a relative viability ([4]; first compound 0.6325 µM) of 0.186. The relative viability ([4]; first compound 2 µM) was 0.223, the relative viability ([4]; first compound 6.325 µM) was 0.281 and the relative viability ([4]; first compound 20 µM) was 0.168. For the same compound, the relative viability ([6]; first compound 0.2 µM) was 0.729, the relative viability ([6]; first compound 2 µM) was 0.655 and the relative viability ([6]; first compound 20 µM) was 0.663. The relative viability ([11]; first compound 0.6325 µM) was 0.158, the relative viability ([11]; first compound 6.325 µM) was 0.121 and the relative viability ([11]; first compound 20 µM) was 0.0239. The relative viability ([7]; first compound 0.2 µM) was 0.745, the relative viability ([7]; first compound 0.6325 µM) was 0.507 and the relative viability ([7]; first compound 2 µM) was 0.517. The relative viability ([7]; first compound 6.325 µM) was 0.82, the relative viability ([7]; first compound 20 µM) was 0.657 and the relative viability ([8]; first compound 0.2 µM) was 0.989. The relative viability ([8]; first compound 0.6325 µM) was 0.88, the relative viability ([8]; first compound 2 µM) was 0.9 and the relative viability ([8]; first compound 6.325 µM) was 1.05. It also gave a relative viability ([8]; first compound 20 µM) of 0.849, a relative viability ([9]; first compound 0.2 µM) of 0.553 and a relative viability ([9]; first compound 0.6325 µM) of 0.632. For the same compound, the relative viability ([9]; first compound 6.325 µM) was 0.573 and the relative viability ([9]; first compound 20 µM) was 0.101.
With `COCC1(CO)C(=O)C2CCN1CC2` (stereo unspecified) [PRIMA-1MET] + Nc1nc2[nH]cc(CCc3ccc(C(=O)N[C@@H](CCC(=O)O)C(=O)O)cc3)c2c(=O)[nH]1 [Pemetrexed] (partner 0.2 µM) the relative viability ([1]; first compound 0.2 µM) was 0.184, the relative viability ([1]; first compound 0.6325 µM) was 0.199 and the relative viability ([1]; first compound 2 µM) was 0.191. The relative viability ([1]; first compound 6.325 µM) was 0.192, the relative viability ([1]; first compound 20 µM) was 0.0784 and the relative viability ([2]; first compound 0.2 µM) was 0.249. It also gave a relative viability ([2]; first compound 0.6325 µM) of 0.261, a relative viability ([2]; first compound 2 µM) of 0.26 and a relative viability ([2]; first compound 6.325 µM) of 0.247. For the same compound, the relative viability ([2]; first compound 20 µM) was 0.263, the relative viability ([3]; first compound 0.2 µM) was 0.35 and the relative viability ([3]; first compound 0.6325 µM) was 0.403. It also gave a relative viability ([3]; first compound 2 µM) of 0.314, a relative viability ([3]; first compound 6.325 µM) of 0.317 and a relative viability ([3]; first compound 20 µM) of 0.138. The relative viability ([4]; first compound 0.2 µM) was 0.187, the relative viability ([4]; first compound 0.6325 µM) was 0.203 and the relative viability ([4]; first compound 2 µM) was 0.156. The relative viability ([4]; first compound 6.325 µM) was 0.184, the relative viability ([4]; first compound 20 µM) was 0.0889 and the relative viability ([6]; first compound 0.2 µM) was 0.72. The relative viability ([6]; first compound 2 µM) was 0.776, the relative viability ([6]; first compound 20 µM) was 0.637 and the relative viability ([7]; first compound 0.2 µM) was 0.54. The relative viability ([7]; first compound 0.6325 µM) was 0.522, the relative viability ([7]; first compound 2 µM) was 0.466 and the relative viability ([7]; first compound 6.325 µM) was 0.511. The relative viability ([7]; first compound 20 µM) was 0.467, the relative viability ([8]; first compound 0.2 µM) was 0.247 and the relative viability ([8]; first compound 0.6325 µM) was 0.249. For the same compound, the relative viability ([8]; first compound 2 µM) was 0.261, the relative viability ([8]; first compound 6.325 µM) was 0.264 and the relative viability ([8]; first compound 20 µM) was 0.174. It also gave a relative viability ([9]; first compound 0.2 µM) of 0.522, a relative viability ([9]; first compound 0.6325 µM) of 0.282 and a relative viability ([9]; first compound 6.325 µM) of 0.455. It also gave a relative viability ([9]; first compound 20 µM) of 0.0805.
